The text below walks through data of patent US20240050385A1, “METHODS OF TREATING LEPTOMENINGEAL METASTASIS” (MEMORIAL SLOAN-KETTERING CANCER CENTER, priority 2020, published 2024).

For one assay, the system named is LCN2. Nature of the assay: LCN2 ELISA after recombinant cytokine stimulation. In kind it is cell-based. The note with it: recombinant cytokine added to artificial CSF; PC9, MDA231 or LLC LeptoM cells; ELISA at 48 h. As for the experimental part:
FIG. 11A-11E. Proinflammatory cytokines in human CSF. (A) LCN2 was quantified by ELISA in the CSF from patients harboring LM was treated with neutralizing antibody against IL-6 or IL-8 and added to MDA231-LeptoM cells for 12 hours. N=3 in each of two independent experiments. NS=not significant, * indicates p<0.05, ** indicates p<0.01, *** indicates p<0.001 (unpaired t test). Data represent mean±SEM. (B) Evaluation of LCN2 expression by ELISA with the treatment of pro-inflammatory cytokines IL-6, IL-8, IL-1β and TNF in PC9-Par and PC9-LeptoM cells. LCN2 expression was determined by ELISA of conditioned media collected 48 hours after recombinant cytokine stimulation. N=3 in each of two independent experiments. *indicates p<0.05 (unpaired t test). Data represent mean±SEM. (C) LCN2 expression by ELISA 48 h after treatment of MDA-Par and MDA-LeptoM cells with IL-6, IL-8, IL-1β and TNF. LCN2 expression by ELISA in conditioned media for 48 hours after recombinant cytokines stimulation. N=3 in each of two independent experiments. *indicates p<0.05 (unpaired t test). Data represent mean±SEM. (D) LCN2 expression by ELISA 48 h after treatment of LLC-Par and LLC-LeptoM cells with IL-6, IL-1β and TNF. N=3 in each of two independent experiments. * indicates p<0.05 (unpaired t test). Data represent mean±SEM. (E) Visualization of macrophage cells in first two diffusion components. First diffusion component is best matched by Hypoxia as indicated with GSEA es=0.6, fdr=0 and M1 phenotype es=−0.5, fdr=0.11, while second diffusion component is best matched by M2 phenotype es=0.7, fdr=0. MAGIC imputed gene set expression was standardized to zero mean and unit of standard deviation.
Secreted protein detection. Human LCN2 (Abcam, ab215541), Hepcidin (R&D, DHP250), Transferrin (Abcam, ab187391), Ferritin (LSBio, LS-F428-1), IL-6 (R&D, D6050), IL-8 (R&D, D8000C), IL-1β (R&D, DLB50), TNF expression (Abcam, ab181421) in CSF patient samples or cell culture supernatants were measured using ELISA kits according to manufacturer's instructions. […]
In general terms: ELISA stands for enzyme-linked immunosorbent assay.

The test system of assay [1] is LeptoM cells expressing shLCN2. Nature of the assay: Tumor growth in mice injected with LeptoM cells expressing shLCN2, treated with holo-transferrin. In kind it is in vivo, mouse. Conditions: 5 mg/mL holo-transferrin intracisternal every third day, 7 doses. An excerpt:
(§1) FIG. 14A-14K. Leptomeningeal metastasis requires iron transporters. (A) Total iron measured by mass spectroscopy in CSF cancer patients with and without LM. Presence of LM is indicated +/−. N=11 cancer patients without LM and n=12 cancer patients with LM. * indicates p<0.05 (unpaired t test). Data represent mean±SEM. (B) LCN2 iron binding assay in patient CSF. Non-LCN2-bound iron [NLBI] and LCN2-bound iron [LBI] was detected in the CSF from cancer patients with or without LM. N=10. **** indicates p<0.0001 (unpaired t test). Data represent mean±SEM. (C) Expression of genes associated with iron transport in parental cells and LeptoM cells by bulk RNA sequencing. N=2 in PC9 cells and n=3 in LeptoM cells. Presented as log 2 fold change in each group with cutoff <20 normalized counts. (D) Tumor growth in mice injected with PC9-LeptoM cells expressing shCtl or shLCN2. Treatment with either vehicle or 5 mg/Ml holo-transferrin (diferric [Tf]) was commenced on day 1 and continued every third day for a total of 7 doses. Left: Histogram represents in vivo BLI imaging post-inoculation at day 21. N=6-8 per group in each of two independent experiments. Right: Representative BLI images. Sh1+Veh vs sh1+Tf, p=0.2087. sh2+Veh vs sh2+Tf, p=0.0604. Data represent mean±SEM. […] Iron measured by colorimetric assay. […] Intracellular iron was determined by colorimetric assay. […]

For a further assay, the system named is PC9-LeptoM cells. Nature of the assay: Cell associated iron and viability of PC9-LeptoM cells after knockdown of SLC22A17 or LCN2. In kind it is cell-based, human. The note with it: 100 μg/mL diferric Tf added in vitro.
Excerpt: as §1, with “21.” for “21. N=6-8 per group in each of two independent experiments. Right: Representative BLI images. Sh1+Veh vs sh1+Tf, p=0.2087. sh2+Veh vs sh2+Tf, p=0.0604. Data represent mean±SEM.”
Cell Viability Assay. […] The CellTiter-Glo Luminescent Cell Viability Assay (Promega G9241) was used to quantify viable cells in culture according to the manufacturer's protocols. […]

Consider “IL-1β: recombinant IL-1β (R&D) added to culture media”, for which, in the assay with LCN2, the “expression of LCN2” value is listed as “induced expression of LCN2”.

Take “IL-6: recombinant IL-6 (R&D) added to culture media”: the “expression of LCN2” value in the assay with LCN2 is “induced expression of LCN2”.

For “IL-8: recombinant IL-8 (R&D) added to culture media”, the “expression of LCN2” value in the assay with LCN2 is “induced expression of LCN2”.

Turning to “transferrin: iron-loaded (diferric) holo-transferrin, Invitria 777TRF029”, the “rescue of LCN2 knockdown by shRNA in vivo (tumor growth, survival)” value in assay [1] is given as “partially rescued”. In the assay on PC9-LeptoM cells, the “cell growth after SLC22A17 or LCN2 knockdown” value is listed as “rescued” and the “intracellular iron accumulation after SLC22A17 or LCN2 knockdown” value was “rescued”.
